Laboratory results taken from patent publication US20210214303A1, “SCORPION VENOM BENZOQUINONE DERIVATIVES AND USES THEREOF” (priority 2018, published 2021).
≈ marks a conversion by molar mass, not a printed value. Entries after “also recorded” stand apart in the source; their conditions may differ. Where two headings read alike, the source gives them in different places.

Experiments:
Staphylococcus aureus = assay: disk-diffusion assay; type: cell-based
Procedure: Ampicillin (5 μg) was used as a positive control.
This difference was confirmed using a broth microdilution assay (FIG. 3D). The minimum inhibitory concentration (MIC) for S. aureus growth was 4 μg/mL for the red 1,4 benzoquinone and 6 μg/mL for the blue 1,4 benzoquinone (FIG. 3D, Table 1). Ampicillin (MIC=0.5 μg/mL) was used as a positive control (ESCMID Eo (2003) Clin. Microbiol. Infect. 9: ix-xv; Pieterse et al., (2010) Brazil. J. Microbiol. 41: 133-145). These compounds were bactericidal at their MICs, killing 90% of S. aureus in 6 h and 99.9% in 24 h (Table 2).

[1] = test system: Staphylococcus aureus ATCC 29213; assay: Minimum inhibitory concentration, Table 1, strain ATCC 29213; type: cell-based; settings: for sensitive/resistant (growth): ATCC 29213; for MIC: ATCC29213, Staphylococcus aureus ATCC 29213; on sensitive/resistant (growth): key: S Sensitive (did not grow the crop); R resistant (bacterial growth)
[2] = test system: clinical isolates of methicillin-resistant S. aureus (MRSA); assay: Minimum inhibitory concentration, Table 1, MRSA clinical isolates; type: cell-based, Staphylococcus aureus; on sensitive/resistant (growth): key: S Sensitive (did not grow the crop); R resistant (bacterial growth)
[3] = test system: Mycobacterium tuberculosis MDR strain; assay: colony-forming units after treatment at the MIC; type: cell-based
[4] = test system: Mycobacterium tuberculosis; type: cell-based; settings: electron microscopy
[5] = intratracheal treatment of healthy mice, lung histology; type: in vivo; settings: 8 μg intratracheally for one month
Procedure: FIGS. 21C-21F illustrate representative micrographs of lung (hematoxylin-eosin staining, 250× magnification) from the untreated group (FIG. 21C) showing extensive areas of pneumonia (asterisk). […] A representative micrograph of a healthy mouse treated intratracheally for one month with 8 μg of the blue 1,4 benzoquinone is shown in FIG. 21E.
The bactericidal activity of the blue compound was tested against progressive pulmonary tuberculosis using an experimental infection model in BALB/c mice. […] This same dose was administered intratracheally to healthy mice for one month, after which they were sacrificed, and their lungs examined.

fresh human erythrocytes = assay: Hemolysis assay; type: cell-based; settings: 2 hours, all concentrations tested (even higher than 100 μg/mL)
Procedure: FIG. 14A illustrates a cytotoxic activity assay of the red and blue 1,4 benzoquinones. Hemolysis was evaluated using fresh human erythrocytes. Lysis was evaluated by the absorbance of the supernatant at 415 nm after 2 hours of incubation with different concentrations of the 1,4 benzoquinones. Triton X-100 was used as positive control.
Hemolysis assay: The hemolytic activity was evaluated for both of the 1,4 benzoquinones using fresh human erythrocytes. Fresh human erythrocytes were washed four times with phosphate buffered saline (PBS) and incubated for 2 h at 37° C. with different concentration of the 1,4 benzoquinones. A gradient of Triton X-100 was used as positive control of hemolysis. After incubation, the erythrocytes suspension was centrifuged at 400×g for 10 min and supernatant was recovered. Hemolysis was determined by the absorbance of the supernatant at 415 nm.

COC1=CC(=O)C(SC)=C(SC)C1=O [blue 1,4 benzoquinone, 5-methoxy-2,3-bis(methylthio)cyclohexa-2,5-diene-1,4-dione]
inhibition of S. aureus growth (Staphylococcus aureus): clear inhibition; also recorded: inhibitory activity | sensitive/resistant (growth) ([1]; 0.5 μg/ml): R | sensitive/resistant (growth) ([1]; 1 μg/ml): S | sensitive/resistant (growth) ([1]; 2 μg/ml): S | sensitive/resistant (growth) ([1]; 4 μg/ml): S | sensitive/resistant (growth) ([1]; 8 μg/ml): S | sensitive/resistant (growth) ([1]; 16 μg/ml): S | sensitive/resistant (growth) ([1]; 32 μg/ml): S | sensitive/resistant (growth) ([1]; 64 μg/ml): S | MIC [1]: 1 µg/mL (≈ 4.34 µM) | MIC ([2]; Staphylococcus aureus, MRSA): > 64 µg/mL | MIC ([2]; strain 01 2075): >64 µg/mL | sensitive/resistant (growth) ([2]; strain 01 2075, 0.5 μg/ml): R | sensitive/resistant (growth) ([2]; strain 01 2075, 1 μg/ml): R | sensitive/resistant (growth) ([2]; strain 01 2075, 2 μg/ml): R | sensitive/resistant (growth) ([2]; strain 01 2075, 4 μg/ml): R | sensitive/resistant (growth) ([2]; strain 01 2075, 8 μg/ml): R | sensitive/resistant (growth) ([2]; strain 01 2075, 16 μg/ml): R | sensitive/resistant (growth) ([2]; strain 01 2075, 32 μg/ml): R | sensitive/resistant (growth) ([2]; strain 01 2075, 64 μg/ml): R | MIC ([2]; strain 01 2104): >64 µg/mL | sensitive/resistant (growth) ([2]; strain 01 2104, 0.5 μg/ml): R | sensitive/resistant (growth) ([2]; strain 01 2104, 1 μg/ml): R | sensitive/resistant (growth) ([2]; strain 01 2104, 2 μg/ml): R | sensitive/resistant (growth) ([2]; strain 01 2104, 4 μg/ml): R | sensitive/resistant (growth) ([2]; strain 01 2104, 8 μg/ml): R | sensitive/resistant (growth) ([2]; strain 01 2104, 16 μg/ml): R | sensitive/resistant (growth) ([2]; strain 01 2104, 32 μg/ml): R | sensitive/resistant (growth) ([2]; strain 01 2104, 64 μg/ml): R | sensitive/resistant (growth) ([2]; strain 09 3001, 0.5 μg/ml): R | sensitive/resistant (growth) ([2]; strain 09 3001, 1 μg/ml): R | sensitive/resistant (growth) ([2]; strain 09 3001, 2 μg/ml): R | sensitive/resistant (growth) ([2]; strain 09 3001, 4 μg/ml): R | sensitive/resistant (growth) ([2]; strain 09 3001, 8 μg/ml): R | sensitive/resistant (growth) ([2]; strain 09 3001, 16 μg/ml): R | sensitive/resistant (growth) ([2]; strain 09 3001, 32 μg/ml): R | sensitive/resistant (growth) ([2]; strain 09 3001, 64 μg/ml): R | MIC ([2]; strain 21 2001): >64 µg/mL | sensitive/resistant (growth) ([2]; strain 21 2001, 0.5 μg/ml): R | sensitive/resistant (growth) ([2]; strain 21 2001, 1 μg/ml): R | sensitive/resistant (growth) ([2]; strain 21 2001, 2 μg/ml): R | sensitive/resistant (growth) ([2]; strain 21 2001, 4 μg/ml): R | sensitive/resistant (growth) ([2]; strain 21 2001, 8 μg/ml): R | sensitive/resistant (growth) ([2]; strain 21 2001, 16 μg/ml): R | sensitive/resistant (growth) ([2]; strain 21 2001, 32 μg/ml): R | sensitive/resistant (growth) ([2]; strain 21 2001, 64 μg/ml): R | killing in comparison to the inoculum bacteria concentration [3]: more than 90% | ultrastructural changes in Mycobacterium tuberculosis bacilli [4]: ultrastructural changes were promoted | ultrastructural changes in Mycobacterium tuberculosis bacilli ([4]; listed as blue benzoquinone): ultrastructural changes | pulmonary histology of healthy mice [5]: The pulmonary histology is normal, with the exception of occasional mild inflammatory infiltrates found around venules; also recorded: only minor inflammatory infiltrates found around the venules | lung fibrosis in healthy mice ([5]; trichrome Masson staining): No fibrosis was seen | hemolytic activity (fresh human erythrocytes): no erythrocyte hemolysis was observed; also recorded: Neither 1,4 benzoquinone showed hemolytic activity

COC1=CC(=O)C(SC)=C(OC)C1=O [red 1,4 benzoquinone, 3,5-dimethoxy-2-(methylthio)cyclohexa-2,5-diene-1,4-dione]
inhibition of S. aureus growth (Staphylococcus aureus): clear inhibition; also recorded: inhibitory activity | sensitive/resistant (growth) ([1]; 0.5 μg/ml): R | sensitive/resistant (growth) ([1]; 1 μg/ml): S | sensitive/resistant (growth) ([1]; 2 μg/ml): S | sensitive/resistant (growth) ([1]; 4 μg/ml): S | sensitive/resistant (growth) ([1]; 8 μg/ml): S | sensitive/resistant (growth) ([1]; 16 μg/ml): S | sensitive/resistant (growth) ([1]; 32 μg/ml): S | sensitive/resistant (growth) ([1]; 64 μg/ml): S | MIC [1]: 1 µg/mL (≈ 4.67 µM) | MIC ([2]; Staphylococcus aureus, MRSA): > 64 µg/mL | MIC ([2]; strain 01 2075): >64 µg/mL | sensitive/resistant (growth) ([2]; strain 01 2075, 0.5 μg/ml): R | sensitive/resistant (growth) ([2]; strain 01 2075, 1 μg/ml): R | sensitive/resistant (growth) ([2]; strain 01 2075, 2 μg/ml): R | sensitive/resistant (growth) ([2]; strain 01 2075, 4 μg/ml): R | sensitive/resistant (growth) ([2]; strain 01 2075, 8 μg/ml): R | sensitive/resistant (growth) ([2]; strain 01 2075, 16 μg/ml): R | sensitive/resistant (growth) ([2]; strain 01 2075, 32 μg/ml): R | sensitive/resistant (growth) ([2]; strain 01 2075, 64 μg/ml): R | MIC ([2]; strain 01 2104): >64 µg/mL | sensitive/resistant (growth) ([2]; strain 01 2104, 0.5 μg/ml): R | sensitive/resistant (growth) ([2]; strain 01 2104, 1 μg/ml): R | sensitive/resistant (growth) ([2]; strain 01 2104, 2 μg/ml): R | sensitive/resistant (growth) ([2]; strain 01 2104, 4 μg/ml): R | sensitive/resistant (growth) ([2]; strain 01 2104, 8 μg/ml): R | sensitive/resistant (growth) ([2]; strain 01 2104, 16 μg/ml): R | sensitive/resistant (growth) ([2]; strain 01 2104, 32 μg/ml): R | sensitive/resistant (growth) ([2]; strain 01 2104, 64 μg/ml): R | sensitive/resistant (growth) ([2]; strain 09 3001, 0.5 μg/ml): R | sensitive/resistant (growth) ([2]; strain 09 3001, 1 μg/ml): R | sensitive/resistant (growth) ([2]; strain 09 3001, 2 μg/ml): R | sensitive/resistant (growth) ([2]; strain 09 3001, 4 μg/ml): R | sensitive/resistant (growth) ([2]; strain 09 3001, 8 μg/ml): R | sensitive/resistant (growth) ([2]; strain 09 3001, 16 μg/ml): R | sensitive/resistant (growth) ([2]; strain 09 3001, 32 μg/ml): R | sensitive/resistant (growth) ([2]; strain 09 3001, 64 μg/ml): R | MIC ([2]; strain 21 2001): >64 µg/mL | sensitive/resistant (growth) ([2]; strain 21 2001, 0.5 μg/ml): R | sensitive/resistant (growth) ([2]; strain 21 2001, 1 μg/ml): R | sensitive/resistant (growth) ([2]; strain 21 2001, 2 μg/ml): R | sensitive/resistant (growth) ([2]; strain 21 2001, 4 μg/ml): R | sensitive/resistant (growth) ([2]; strain 21 2001, 8 μg/ml): R | sensitive/resistant (growth) ([2]; strain 21 2001, 16 μg/ml): R | sensitive/resistant (growth) ([2]; strain 21 2001, 32 μg/ml): R | sensitive/resistant (growth) ([2]; strain 21 2001, 64 μg/ml): R | hemolytic activity (fresh human erythrocytes): no erythrocyte hemolysis was observed; also recorded: Neither 1,4 benzoquinone showed hemolytic activity
